This is an account of results in patent US20190321324A1, “QUATERNARY AMINE ANTIBIOTIC THERAPEUTICS” (BOARD OF REGENTS, THE UNIVERSITY OF TEXAS SYSTEM, priority 2016, published 2019).

By MIC is commonly meant the lowest concentration that inhibits growth of the organism. A word on the MBC: it is the lowest tested concentration that kills the bacteria rather than only halting them.

In brackets after ≈: the same amount, converted by molar mass. Counter-ions that a name gives are not always drawn. Like-named read-outs stand apart in the source and are kept apart here. A value given as a limit tells only on which side of the number the result lay.

The subject of experiment [1] is A. baumannii. Kind of experiment: A. baumannii MIC of clinically used QACs. It is filed as cell-based, Acinetobacter baumannii. Particulars: for MIC: unit assumed; for Prevention of growth (in words): antibiotic resistant and susceptible A. baumannii; for Effect of ribosomal mutations on MIC (in words): BAC resistant mutants, S11 and L24 (Mutants 1 and 4). The procedure:
(§1) The antimicrobial activity of three QACs that have been approved for human use; Bretylium tosylate, Clofilium tosylate, and Otilonium bromide, were tested (FIG. 1). The length of the hydrocarbon tail on BAC is known to strongly influence its behavior. Clofilium tosylate and Otilonium bromide both have hydrocarbon tails that are hypothesized to allow cell envelope penetration. […] Similar activity was determine for these three compounds in S. aureus (Table 2)
BAC, Bretylium tosylate, Clofilium tosylate, and Otilonium bromide are all QACs but with different structures. […] Bretylium tosylate, Clofilium tosylate, and Otilonium bromide were tested on BAC resistant mutants representing mutations in ribosomal proteins S11, L23, L24 and the UTR of the ribosomal operon. […] The MIC to Otilonium bromide was not affected in these mutants.

Experiment [2] deals with S. aureus. Kind of experiment: S. aureus MIC of clinically used QACs. It is filed as cell-based, Staphylococcus aureus. Particulars: unit assumed. The procedure:
as §1

The test system of experiment [3] is A. baumannii lon mutant. Kind of experiment: Sensitivity of A. baumannii lon mutant to Otilonium bromide treatment. It is filed as cell-based, Acinetobacter baumannii.
Experiment [4] relates to C. difficile. Kind of experiment: C. difficile minimal bactericidal assay (MBC). It is filed as cell-based, Clostridium difficile. Particulars: Clostridioides difficile, 20 h, 20 h at 37° C., anaerobic. The procedure:
Activity of Otilonium bromide was also tested using two strains of C. difficile, 43255 and 630 (MDR). The minimal bactericidal assay was performed using 5×10^5 C. difficile bacteria where incubated with vancomycin or OB at the indicated concentrations for 20 h at 37° C. in an anaerobic chamber. The total volume per well in BHIS medium was 100 μl and 5 μL was spotted on RCM medium and plates were incubated for 24 h. The MBC is identified as the concentration of compound the reduced cfu to single or no numbers.

As for `CC[N+](C)(C)Cc1ccccc1Br` [Bertylium tosylate, Bretylium tosylate], the minimum inhibitory concentration (MIC) in experiment [1] (BAC resistant Mutant 1 (20)), in experiment [1] (BAC resistant Mutant 4 (23)), in experiment [1] (BAC resistant Mutant 7 (19)), in experiment [1] (BAC resistant Mutant 8 (3)), in experiment [1] (strain 17978) and in experiment [1] (strain AYE (MDR)) was more than 256 µg/mL throughout. For the same molecule, the minimal inhibitory concentration (MIC) in experiment [2] (strain MU50 (MDR)) and in experiment [2] (strain Newman) was more than 256 µg/mL throughout. Further, the “Prevention of growth (in words)” value in experiment [1] is given as “did not show activity”.

On to `CCCCCCCCOc1ccccc1C(=O)Nc1ccc(C(=O)OCC[N+](C)(CC)CC)cc1.[Br-]` [Otilonium bromide], for which, in experiment [3], the “Sensitivity of lon mutant (in words)” value is reported as “highly sensitized”. Besides, the MIC in experiment [1] (BAC resistant Mutant 1 (20)), in experiment [1] (BAC resistant Mutant 4 (23)), in experiment [1] (BAC resistant Mutant 7 (19)), in experiment [1] (BAC resistant Mutant 8 (3)), in experiment [1] (strain 17978) and in experiment [1] (strain AYE (MDR)) was 16 µg/mL in each case. For the same molecule, the MIC in experiment [2] (strain MU50 (MDR)) amounted to 4 µg/mL; in experiment [2] (strain Newman), 2 µg/mL. Besides, in experiment [1], the “Effect of ribosomal mutations on MIC (in words)” value is “not affected”. Moreover, in experiment [1], the “Prevention of growth (in words)” value is given as “prevent growth”. In addition, in experiment [1] (strain 17978), the “MIC compared with BAC” value is given as “equivalent to that of BAC”. The MBC came to 2 µg/mL in experiment [4] (strain 630 (MDR), read-out: MBC) and 1 µg/mL in experiment [4] (strain 43255, read-out: MBC).

With `CN[C@H](CC(C)C)C(=O)N[C@H]1C(=O)N[C@@H](CC(N)=O)C(=O)N[C@H]2C(=O)N[C@H]3C(=O)N[C@H](C(=O)N[C@H](C(=O)O)c4cc(O)cc(O)c4-c4cc3ccc4O)[C@H](O)c3ccc(c(Cl)c3)Oc3cc2cc(c3O[C@@H]2O[C@H](CO)[C@@H](O)[C@H](O)[C@H]2O[C@H]2C[C@](C)(N)[C@H](O)[C@H](C)O2)Oc2ccc(cc2Cl)[C@H]1O` [Vancomycin], the results for the minimum bactericidal concentration (MBC) in experiment [4] (strain 630 (MDR)) and in experiment [4] (strain 43255) were approximately 2 µg/mL (≈ 1.38 µM) and 1 µg/mL (≈ 0.69 µM), respectively.

Regarding Clofilium tosylate, the MIC was determined as 256 µg/mL in experiment [1] (BAC resistant Mutant 7 (19)); 256 µg/mL in experiment [1] (BAC resistant Mutant 8 (3)); 128 µg/mL in experiment [1] (strain 17978); 128 µg/mL in experiment [1] (strain AYE (MDR)); 32 µg/mL in experiment [2] (strain MU50 (MDR)); 16 µg/mL in experiment [2] (strain Newman). For the same molecule, in experiment [1], the “Effect of ribosomal mutations on MIC (in words)” value is on record as “increased resistance”. Moreover, the “Prevention of growth (in words)” value in experiment [1] is “prevent growth”.
